Where a name gives a salt, the structure may show the parent alone. Read-outs that look alike come from different tables or passages of the source.
Legend:
SARS-CoV-2 [1] = tested on: SARS-CoV-2
HeLa-ACE2 cells [2] = tested on: HeLa-ACE2 cells
SARS-CoV-2 [3] = settings: for EC50: read-out: Calu-3 CoV-2 EC50
SARS-CoV-2 [4] = experiment: microbe, parasite or virus in culture
SARS-CoV-2 [5] = experiment: Checkerboard synergy study with remdesivir (ZIP model, synergyfinder); type: cell-based
in vitro = settings: human
[6] = human, oral; cited from earlier work
HeLa-ACE2 cells [7] = experiment: cells; type: cell-based, human
[8] = rat, oral; cited from earlier work
[9] = read-out: HeLa-ACE2 CoV-2 EC50, Table 4, aggregated data, Geomean, n = 3
[10] = read-out: HeLa-ACE2 Uninfected Tox CC50, Table 4, aggregated data, Geomean, n = 3
[11] = Table 4, aggregated data, Geomean, n = 3, 48 h
[12] = read-out: Calu-3 Uninfected Tox CC50, Table 4, aggregated data, Geomean, n = 3
[13] = Severe acute respiratory syndrome coronavirus 2, HeLa-ACE2, 24 h, read-out: CoV-2 EC50 [μM] (Geomeans, n ≥ 2)
[14] = CC50 [μM] (Geomeans, n ≥ 2 except where indicated: *n = 1)
[15] = Severe acute respiratory syndrome coronavirus 2, HeLa-ACE2, read-out: SARS CoV-2 EC50 (μM)
[16] = Table 1, ZIP model, δ>10 synergy, δ<−10 antagonism, between additive
[17] = Homo sapiens, HeLa-ACE2, read-out: HeLa-ACE-2 EC50 [μM] (Geomeans, n ≥ 2)
[18] = read-out: HeLa-ACE-2 EC50 [μM] (Geomeans, n ≥ 2)

Method for Calu-3 cells: To assess cell viability, 2 μL of 50% Cell-Titer Glo (Promega No G7573) diluted in water was added to the cells and luminescence measured on an EnVision Plate Reader (Perkin Elmer).
Data analysis. […] Primary in vitro screen and the host cell cytotoxicity counter screen data were uploaded to Genedata Screener, Version 16.0.3-Standard. […] For the uninfected host cell cytotoxicity counter screens, 40 μM puromycin (Sigma) was used as the positive (inhibitory) control in HeLa-ACE2, HepG2 and HEK293T cells, and 30 μM puromycin (Sigma) was used as the positive (inhibitory) control for Calu-3 cells. For dose response experiments compounds were tested in technical triplicates on different assay plates and dose curves were fitted with the four parameter Hill Equation. Technical replicate data were analyzed using median condensing. Geometric means and geometric standard deviations are reported for compound activities (EC50s and CC50s) obtained in multiple independent biological experiments. […] Geometric means were calculated by computing the logarithm (base 10) of all values, calculating the mean of these logarithms, and taking the antilog of that mean. Geometric standard deviations were computed by taking the standard deviation of the log-transformed individual values and taking the antilog of that standard deviation. The geometric standard deviation is a unitless ratio and reported as ×÷ instead of +/−.

Compound	EC50 (SARS-CoV-2 [1]; [9])	CC50 (HeLa-ACE2 cells [2]; [10])	Calu3 SI CC50/CoV-2 EC50 (SARS-CoV-2 [3]; Table 4)	EC50 (SARS-CoV-2 [3]; [11])	CC50 (Calu-3 cells; [12])	HeLa-ACE2 CC50/CoV-2 EC50 (SARS-CoV-2 [1])	EC50 (SARS-CoV-2 [4]; [13])	CC50 (in vitro; [14])	CC50 (in vitro; Uninfected HeLa-ACE2 CC50 (μM))	Cmax [6]	t1/2 [6]	other results
Cc1nc2c(s1)C(=O)C=C(NCCN(C)C)C2=O [BN-82685]	1.53 µM	4.66 µM	5.69	3.05 µM	5.96 µM	–	–	–	–	–	–	HeLa-ACE2 SI CC50/CoV-2 EC50 (SARS-CoV-2 [1]; Table 4): 3.04
CN(C)CCOc1ccc2c(=O)c3ccc(OCCN(C)C)cc3oc2c1 [TILORINE DIHYDROCHLORIDE]	–	–	–	–	–	11.07	0.884 µM	–	–	–	–	CC50 (HeLa-ACE2 cells [2]; human): 9.79 µM
CCOc1ccc(Cc2nc3cc(N(C)S(=O)(=O)c4cccs4)ccc3n2CC2CCCCC2)nc1 [AZ-11713908]	> 9.59 µM	33 µM	>8	3.54 µM	> 29.9 µM	–	–	–	–	–	–	–
CCCCN(CCCC)CCC(O)c1cc2c(Cl)cc(Cl)cc2c2cc(C(F)(F)F)ccc12 (stereo not drawn) [Halofantrine HCl]	–	–	–	–	–	>20.66	1.16 µM	> 23.9 µM	> 23.9 µM	~1000 nM	~72 h (human oral)(16, 17)	Synergy score with remdesivir (δ) (SARS-CoV-2 [5]; Table 3): −3.509; EC50 (SARS-CoV-2 [4]; [15]): 1.16 µM
Nc1nc(Nc2ccc3c(c2)CC[C@@H](N2CCCC2)CC3)nn1-c1cc2c(nn1)-c1ccccc1CCC2 [BGB324/R-428]	–	–	–	–	–	13.05	1.2 µM	15.7 µM	–	~750 nM	~80 h (oral, humans)(30)	Synergy score with remdesivir (δ) (SARS-CoV-2 [5]; Table 3): 7.223; EC50 (SARS-CoV-2 [4]; [15]): 1.2 µM
Oc1ccc(Nc2ccnc3cc(Cl)ccc23)cc1CN1CCCC1 [AMOPYROQUINE]	–	–	–	–	–	19.02	0.904 µM	–	–	–	–	CC50 (HeLa-ACE2 cells [2]; human): 17.2 µM
COC1(c2cc(F)cc(OCc3ccc4c(ccc(=O)n4C)c3)c2)CCOCC1 [ZD 2138]	> 9.59 µM	28.7 µM	5.18	2.79 µM	14.4 µM	–	–	–	–	–	–	–
Nc1nc2[nH]cnc2c(=S)[nH]1 [Tioguanine]	0.787 µM	2.82 µM	6.45	0.127 µM	–	–	–	–	–	–	–	HeLa-ACE2 SI CC50/CoV-2 EC50 (SARS-CoV-2 [1]; Table 4): 3.58; CC50 (Calu-3 cells): 0.822 µM
CC(C)(C)Cn1c(N)nc2ccc(-c3[nH]c(C(C)(C)C)nc3-c3ccc(F)cc3)nc21 [Ralimetinib mesylate/LY2228820, Ralimetinib mesylate]	–	–	–	–	–	14.6	1.87 µM	27.4 µM	–	~5000 nM	~145 h (human, oral)(28)	Synergy score with remdesivir (δ) (SARS-CoV-2 [5]; [16]): −0.846; Synergy score with remdesivir (δ) (SARS-CoV-2 [5]; Table 3): −0.846; activity in HeLa-ACE2 infection assay (SARS-CoV-2 [1]): active; activity in Calu-3 infection assay (SARS-CoV-2 [3]): active
NCCc1cn(S(=O)(=O)c2c(Cl)nc3sccn23)c2ccccc12 [SAX-187]	–	–	–	–	–	4.02	1.85 µM	7.43 µM	7.43 µM	–	–	EC50 (HeLa-ACE2 cells [7]; [17]): > 9.37 µM; Cmax [8]: 400 nM; t1/2 [8]: ~3 h (rat, oral)(39); EC50 (SARS-CoV-2 [4]; [15]): 1.85 µM
Cc1c(O)cccc1C(=O)N[C@@H](CSc1ccccc1)[C@H](O)CN1C[C@H]2CCCC[C@H]2C[C@H]1C(=O)NC(C)(C)C [nelfinavir mesylate]	–	–	–	–	–	>2.08	> 8.64 µM	> 18 µM	> 18 µM	~17000 nM	~4 h (human oral)(20)	Synergy score with remdesivir (δ) (SARS-CoV-2 [5]; [16]): −1.233
CC(C)Oc1ccc(-c2nc(-c3cccc4c3CC[C@@H]4NCCO)no2)cc1C#N [Ozanimod]	–	–	–	–	–	>5.60	2.63 µM	> 14.7 µM	> 14.7 µM	~1200 nM	~21 h (human, oral)(24)	Synergy score with remdesivir (δ) (SARS-CoV-2 [5]; Table 3): −4.62; EC50 (SARS-CoV-2 [4]; [15]): 2.63 µM
CSc1ncnc2c1ncn2[C@@H]1O[C@H](CO)[C@@H](O)[C@H]1O [6-Methyl mercaptopurineriboside]	3.6 µM	15.4 µM	5.80	0.207 µM	1.2 µM	–	–	–	–	–	–	HeLa-ACE2 SI CC50/CoV-2 EC50 (SARS-CoV-2 [1]; Table 4): 4.27
Nc1nccc2c1ncn2C1C=C(CO)C(O)C1O (stereo not drawn) [DEAZANEPLANOCINA]	> 9.59 µM	7.95 µM	182.24	0.057 µM	10.3 µM	–	–	–	–	–	–	–
CC(CN(C)C)CN1c2ccccc2CCc2ccccc21 (stereo not drawn) [Trimipramine]	–	–	–	–	–	10.11	2.11 µM	–	–	–	–	CC50 (HeLa-ACE2 cells [2]; human): 21.3 µM
COC(=O)[C@H]1[C@H]2C[C@@H]3c4[nH]c5cc(OC)ccc5c4CCN3C[C@H]2C[C@@H](OC(=O)c2cc(OC)c(OC)c(OC)c2)[C@@H]1OC [Reserpine]	–	–	–	–	–	>6.60	–	–	–	–	–	EC50 (HeLa-ACE2 cells [7]; [18]): > 9.6 µM; EC50 (SARS-CoV-2 [1]; read-out: CoV-2 EC50 [μM] (Geomeans, n ≥ 2), Table 1, HeLa-ACE2, 24 h): > 5.51 µM; CC50 (HeLa-ACE2 cells [2]): > 36.4 µM
CCc1ccc2c(c1)N(CC(C)CN(C)C)c1ccccc1S2 (stereo not drawn) [Ethylisobutrazine Hydrochloride]	–	–	–	–	–	10.48	2 µM	–	–	–	–	CC50 (HeLa-ACE2 cells [2]; human): 20.9 µM
COC(=O)C1=C(C)NC(C)=C(C(=O)OCCN2CCN(C(c3ccccc3)c3ccccc3)CC2)C1c1cccc([N+](=O)[O-])c1 (stereo not drawn) [manidipine]	–	–	–	–	–	>2.48	> 6.89 µM	> 17.1 µM	> 17.1 µM	~10 nM	~3 h (human, oral)(23)	Synergy score with remdesivir (δ) (SARS-CoV-2 [5]; [16]): −4.727; Synergy score with remdesivir (δ) (SARS-CoV-2 [5]; Table 3): −4.727; EC50 (SARS-CoV-2 [4]; [15]): > 6.89 µM
Antimycin A3	> 9.59 µM	> 39.8 µM	109.64	0.036 µM	3.9 µM	–	–	–	–	–	–	–
CC(=O)OC[C@H]1O[C@@H]([S-])[C@H](OC(C)=O)[C@@H](OC(C)=O)[C@@H]1OC(C)=O.CCP(CC)CC.[Au+] [auranofin]	0.988 µM	0.634 µM	7.87	0.525 µM	3.13 µM	–	–	–	–	–	–	HeLa-ACE2 SI CC50/CoV-2 EC50 (SARS-CoV-2 [1]; Table 4): 0.64
CN(C)C(C(=O)Nc1ccc2c(=O)[nH]ccc2c1)c1ccsc1 (stereo not drawn) [Verosudil]	> 9.59 µM	> 39.8 µM	5.39	3.51 µM	18.9 µM	–	–	–	–	–	–	–
C=CC(=O)Nc1cc(Nc2nccc(-c3cn(C)c4ccccc34)n2)c(OC)cc1N(C)CCN(C)C [Osimertinib]	–	–	–	–	–	>18.79	0.962 µM	> 18.1 µM	> 18.1 µM	~1500 nM	~42 h (human, oral)(33, 34)	Synergy score with remdesivir (δ) (SARS-CoV-2 [5]; [16]): −0.722; Synergy score with remdesivir (δ) (SARS-CoV-2 [5]; Table 3): −0.722; EC50 (SARS-CoV-2 [4]; [15]): 0.962 µM
Cloturin	3.88 µM	31.5 µM	6.62	0.304 µM	2.01 µM	–	–	–	–	–	–	HeLa-ACE2 SI CC50/CoV-2 EC50 (SARS-CoV-2 [1]; Table 4): 8.13
COc1ccc2c(c1)CN(C)CC2c1ccc(Cl)c(Cl)c1 (stereo not drawn) [diclofensine]	–	–	–	–	–	<1.28	> 7.89 µM	10.1 µM	> 40 µM	~30 nM	~15 h (human, oral)(25)	EC50 (HeLa-ACE2 cells [7]; [17]): > 9.59 µM; EC50 (SARS-CoV-2 [4]; [15]): 6.06 µM
O=c1[nH]c2ccc(C(F)(F)F)cc2c(-c2cc(Cl)ccc2O)c1CCO [BMS-223131]	> 9.59 µM	21.4 µM	>5.8	5.14 µM	> 29.9 µM	–	–	–	–	–	–	–
NC1(c2ccc(-c3nc4ccn5c(=O)[nH]nc5c4cc3-c3ccccc3)cc2)CCC1 [MK-2206]	–	–	–	–	–	>20.63	–	–	–	~571 nM	~75 h (human, oral)(29)	EC50 (HeLa-ACE2 cells [7]; [18]): > 9.59 µM; Synergy score with remdesivir (δ) (SARS-CoV-2 [5]; [16]): 2.087; Synergy score with remdesivir (δ) (SARS-CoV-2 [5]; Table 3): 2.087; EC50 (SARS-CoV-2 [1]; read-out: CoV-2 EC50 [μM] (Geomeans, n ≥ 2)): 1.1 µM; EC50 (SARS-CoV-2 [1]; read-out: SARS CoV-2 EC50): 1.1 µM; CC50 (HeLa-ACE2 cells [2]): > 22.8 µM
Nc1cc(OCC2CC2)c(C(=O)NC2CN3CCC2CC3)cc1Cl (stereo not drawn) [Pancopride]	–	–	–	–	–	4.32	> 8.64 µM	> 37.3 µM	> 37.3 µM	~300 nM	~16 h (human, oral)(26)	EC50 (HeLa-ACE2 cells [7]; [17]): > 9.59 µM; Synergy score with remdesivir (δ) (SARS-CoV-2 [5]; [16]): 0.648; Synergy score with remdesivir (δ) (SARS-CoV-2 [5]; Table 3): 0.65; EC50 (SARS-CoV-2 [4]; [15]): > 8.64 µM
COc1ccc2c(O[C@@H]3C[C@H]4C(=O)N[C@]5(C(=O)NS(=O)(=O)C6CC6)C[C@H]5/C=C\CCCCN(C)C(=O)[C@@H]4C3)cc(-c3nc(C(C)C)cs3)nc2c1C [Simeprevir]	–	–	–	–	–	>2.81	> 7.88 µM	> 22.2 µM	> 22.2 µM	~32000 nM	~16 h (human oral)(21, 22)	–
N#Cc1c(N)nc(N)nc1N[C@H](c1nc2c(F)ccc(Cl)c2c(=O)n1-c1cccnc1)C1CC1 [GS-9901]	–	–	–	–	–	>8.17	3.81 µM	> 31.1 µM	> 31.1 µM	–	–	Cmax [8]: ~1800 nM; t1/2 [8]: ~2 h (rat, oral)(36)
Cn1cnc([N+](=O)[O-])c1Sc1ncnc2[nH]cnc12 [Azathioprin]	–	–	–	–	–	–	–	–	–	–	–	HeLa-ACE2 SI CC50/CoV-2 EC50 (SARS-CoV-2 [1]): 7.67; EC50 (SARS-CoV-2 [1]; read-out: HeLa-ACE2 CoV-2 EC50): 5.08 µM; CC50 (HeLa-ACE2 cells [2]): 39 µM; Calu3 SI CC50/CoV-2 EC50 (SARS-CoV-2 [3]): 7.35; EC50 (SARS-CoV-2 [3]): 0.482 µM; CC50 (Calu-3 cells): 3.55 µM
